Test results: a melting point compilation (Tetko et al.; mined from patent text by program, amines drawn as free bases though some values may be those of a salt)

Compared with CC(C(=O)O)c1cccc(NC(=O)NCC(=O)N2[C@@H](c3cccc(F)c3F)SC[C@H]2C(=O)OC(C)(C)C)c1 (stereo partly specified), Cc1cccc(NC(=O)NC2CN(C(=O)NC3CCCCC3)c3ccccc3N(CC(=O)c3ccccc3C)C2=O)c1 (stereo unspecified) is lower in melting point: 130 °C for the first, 117 to 119 °C for the second.

First: O=c1[nH][nH]c(=O)c2c(O)c3ccc(F)cc3nc12
Second: Nc1cccc2cc(C(=O)O)ccc12
The melting point of the first is lower: 228 °C for the first, 231 to 234 °C for the second.

First: O=C1c2ccccc2CN1CCOc1ccc(CO)cc1
Second: O=C(O)CCCc1ccc(-c2cccc(Cl)c2Cl)cc1
The melting point of the first is higher: 106 to 107 °C for the first, 70 to 71 °C for the second.

Compared with O=C(NCc1cccnc1)C1Oc2ccc(Cl)cc2Cc2cc(Cl)ccc2O1, Oc1cncc(Cl)c1CCCOc1cccnc1Oc1cccc(Cl)c1 is lower in melting point: 225 to 226 °C for the first, 95 to 96 °C for the second.

First: CCCCCCCCCCCCCCCCOc1ccc(-c2nc(CC(=O)O)c(Oc3ccc(Cl)cc3)o2)cc1
Second: CCCCN(CCCC)CCOc1ccc(C(=O)c2c(CC)cc3ccccn23)cc1
The melting point of the first is lower: 76 to 77 °C for the first, 116 °C for the second.

First: CC(=NN(C)C(=O)c1ccccc1)c1ccncc1
Second: CCOC(=O)CNC(=S)NC(=Nc1ccc([N+](=O)[O-])cc1)c1ccccc1
The melting point of the first is lower: 128 °C for the first, 189 to 190 °C for the second.

First: O=C(O)c1ccccc1Nc1ccc(O)c(Cl)c1
Second: COc1ccccc1Oc1ccc([N+](=O)[O-])cc1C(=O)O
The melting point of the first is higher: 180 to 183 °C for the first, 162 to 165 °C for the second.

Compared with COC(=O)C1CCC(=O)N1C(=O)Nc1ccccc1 (stereo unspecified), COC(=O)c1cc2c3ccccc3n(CC3CC3)c2s1 is higher in melting point: 91 to 92 °C for the first, 110 to 111 °C for the second.

First: C(/CN1CCOCC1)=C1/CCCc2c1cnn2-c1ccccc1
Second: COc1ccc2c(CCC3CCN(Cc4ccccc4)CC3)noc2c1
The melting point of the first is higher: 114 to 116 °C for the first, 90.5 to 91.5 °C for the second.

First: Cc1cc(I)ccc1N=C=S
Second: CCC(Oc1cc(F)ccc1F)C1=NCCN1 (stereo unspecified)
The melting point of the first is lower: 51 to 53 °C for the first, 110 °C for the second.

First: COc1ccc(C2CN(C(C)=O)C(=O)O2)cc1OC (stereo unspecified)
Second: COc1cc2c(cc1OC)-c1c(OC)c(OC)cc3c1C(C2)N(C)CC3 (stereo unspecified)
The melting point of the first is higher: 175 to 182 °C for the first, 112 to 114 °C for the second.

First: O=C(O)c1ccc(CN2CCC(CCCC(=O)c3ccc4c(c3)CCN(Cc3ccccc3)CC4)CC2)cc1
Second: COc1ccc(C(=O)Nc2ccccc2)cc1NS(=O)(=O)c1cccc(C)c1
The melting point of the first is lower: 165 to 176 °C for the first, 195 to 197 °C for the second.

First: O=[N+]([O-])c1cc(Cn2cncn2)ccc1Cl
Second: O=C(Cn1ccnc1[N+](=O)[O-])c1cccnc1
The melting point of the first is lower: 98.9 °C for the first, 125 to 127 °C for the second.

First: Nc1c(SC(F)(F)F)nc(Cl)n1-c1c(Cl)cc(C(F)(F)F)cc1Cl
Second: O=C(Nc1cccc(S(=O)(=O)NCC2CC2)c1)c1cnn2c(C(F)(F)F)cc(-c3ccc(C(F)(F)F)cc3)nc12
The melting point of the first is lower: 172 °C for the first, 234 °C for the second.

First: CCOC(=O)C=Cc1ccc(NCCOC)cc1
Second: COC(=O)NC1=NCC(c2ccc(OC(C)C)cc2)N1C (stereo unspecified)
The melting point of the first is lower: 49.9 to 53.4 °C for the first, 135 to 138 °C for the second.

Compared with COc1ccc(S(=O)(=O)C(Cc2cccnc2)(CC2CCCCC2)C(=O)NO)cc1 (stereo unspecified), CSc1ccc(CN(C2CCOCC2)S(=O)(=O)c2ccc(Cl)cc2)cc1 is higher in melting point: 57 to 60 °C for the first, 124 to 127 °C for the second.

First: O=c1[nH]c(=O)n2c3c1cnn3C(c1cccc(C(F)(F)F)c1)CC2 (stereo unspecified)
Second: N#CC12COc3cc(Cl)ccc3C1=NN(C(=O)Nc1ccc(C(F)(F)F)cc1)C2 (stereo unspecified)
The melting point of the first is higher: 297 to 300 °C for the first, 227 to 229 °C for the second.

Compared with c1ccc(-c2cc(N3CCNCC3)nc(-c3ccccn3)n2)nc1, CN(C(=O)CNc1nc(-c2ccccc2)ncc1N)c1ccccc1 is higher in melting point: 159 to 161 °C for the first, 183 to 184 °C for the second.

First: CCCCN1Cc2[nH]c3ccccc3c2C1
Second: CCOC(=O)c1c(N)c2cccnc2n(CC(C)C)c1=O
The melting point of the first is lower: 151 to 152 °C for the first, 157 to 159 °C for the second.

First: CCOC(=O)C(CBr)=C1CC(=O)CCC1=N
Second: CCOC(=O)C(CCC(=O)O)(CCC(=O)O)C(=O)OCC
The melting point of the first is higher: 170 to 175 °C for the first, 120 °C for the second.

Compared with C#Cc1ccc(Nc2c(-c3nnc(NCCO)o3)ccc(F)c2F)c(F)c1, CCS(=O)(=O)Nc1cc(-c2ncnc(OC)c2C#N)c(F)cc1C#N is higher in melting point: 112 to 115 °C for the first, 187 to 189 °C for the second.

Compared with N#Cc1ccc(-c2nc(COc3ccc(CCCn4ccnc4)cc3)co2)cc1, CCn1cc(/C=C/c2cn(-c3ccccc3)nc2OCc2ccc(OCc3nc(-c4ccc(CC(=O)O)cc4)oc3C)c(OC)c2)cn1 is higher in melting point: 98 to 99 °C for the first, 146 to 147 °C for the second.

First: CCOC(=O)C1=C(C)Nc2nc(N3CCOCC3)nc(N3CCOCC3)c2C1c1ccncc1 (stereo unspecified)
Second: CCCCCn1c2ccc(C(=O)NN3CCCCC3)cc2c2ccc(OC)cc21
The melting point of the first is higher: 209 °C for the first, 178 to 179 °C for the second.

First: CN1CC=C(c2c[nH]c(-c3ccc(F)cc3)c2-c2ccncc2)CC1Cc1ccccc1 (stereo unspecified)
Second: COCCOCCn1cc(C(=O)NCc2ccc(Cl)cc2)c(=O)c2cc(CN(C)CC#N)ccc21
The melting point of the first is higher: 198 to 199 °C for the first, 118 to 120 °C for the second.

First: CC(=O)N[C@@H](CSC(=O)C(C)(C)C)C(=O)NCCSC(=O)C(C)C
Second: CCCCC(C(N)=O)n1ccnc1 (stereo unspecified)
The melting point of the first is higher: 103 to 104 °C for the first, 90 to 91 °C for the second.

O=S1(=O)NC(C2CCCCC2)Nc2c(Br)cc(Br)cc21 (stereo unspecified) gave a melting point of 166 to 167 °C.
